Test results as given in patent US20250032567A1, “PLANT-BASED SKIN PREPARATIONS AND USE THEREOF” (priority 2022, published 2025).

test system: cannabis calli; assay: Elicitation of callus cultures on solid medium, cannabinoid content by HPLC; assay type: cell-based, Cannabis sativa; conditions: elicitors compared for inducing secondary metabolites

| Structure (SMILES) | cannabinoid production (elicitor effect) |
| --- | --- |
| N[C@@H](Cc1ccc(O)cc1)C(=O)O [tyrosine] | positive results |
| N[C@@H](Cc1ccccc1)C(=O)O [phenylalanine] | positive results |
| CCCCCC(=O)O [hexanoic acid] | positive results |
| CC/C=C\CC1C(=O)CCC1CC(=O)OC (stereo not shown) [methyl jasmonate] | positive results |
| O=C(O)c1ccccc1O [salicylic acid] | positive results |
| O=P(O)(O)CCCl [ethephon] | positive results |
| NCCCC(=O)O [GABA] | positive results |
